Positions of bridges follow the written chain, without caps; N, C: chain ends. Residues, ends and D or L forms follow the SMILES beside them.
How the values were obtained:
[1] = biological target: T1, human BACE1 (rhBACE1) (Homo sapiens, UniProt P56817); assay: BACE1 fluorescence polarization (FP) competition binding assay with 5-TAMRA-BACE020 probe; settings: competition with 3 nM 5-TAMRA-BACE020, 12 nM rhBACE1, pH 4.4
Experimental: BACE1 Fluorescence Polarization Competition Binding Assay.
BACE1 binding assays were carried out in a final volume of 10 μL per well in black 384-well microplates (Proxiplate-Plus; Perkin Elmer, Waltham, Mass.). A standard binding reaction, initiated by the addition of 5 μL 2× enzyme to 2.5 μL of 4× binding probe and […] of 4× inhibitor, contained 12 nM rhBACE1, 3 nM 5-TAMRA-[…] (SEQ ID NO: 16) (5-TAMRA-BACE020), 50 mM NaOAc, pH 4.4 with 0.1% CHAPS. The reaction was permitted to proceed towards equilibrium for 2 h at ambient temperature prior to fluorescence polarization measurement using Envision (Perkin Elmer). The parallel and perpendicular fluorescent emissions measured in each well at 595 nm (excitation 531 nm polarized light) were used to determine the milli-polarization level (mP) using the following formula: mP=1000*(S-G*P)/(S+G*P) where S=parallel emission, P=perpendicular emission and G=0.65. The mP value in each well was plotted as a function of inhibitor concentration and the 50% inhibition (IC50) values were determined using a nonlinear least squares fit of the data to a four parameter equation using Prism 5.0 software (GraphPad Software, San Diego, Calif.). 5-TAMRA-labeled BACE020 was purchased from American Peptide Company, Inc (Sunnyvale, Calif.) and solubilized in DMSO to 100 mM for storage.
The affinities of BACE1 peptide ligands were measured using the abovementioned competition binding FP assay for determining IC50 values with serially diluted peptides. A Caliper assay was used to measure the inhibition of BACE1 enzymatic activity by peptide ligands. […] Furthermore, the IC50 values measured by the Caliper assay for peptides BACE017-021 and BACE025-028 are consistent with those measured by the HTRF assay.
Target sequence in this assay (P56817 46-501): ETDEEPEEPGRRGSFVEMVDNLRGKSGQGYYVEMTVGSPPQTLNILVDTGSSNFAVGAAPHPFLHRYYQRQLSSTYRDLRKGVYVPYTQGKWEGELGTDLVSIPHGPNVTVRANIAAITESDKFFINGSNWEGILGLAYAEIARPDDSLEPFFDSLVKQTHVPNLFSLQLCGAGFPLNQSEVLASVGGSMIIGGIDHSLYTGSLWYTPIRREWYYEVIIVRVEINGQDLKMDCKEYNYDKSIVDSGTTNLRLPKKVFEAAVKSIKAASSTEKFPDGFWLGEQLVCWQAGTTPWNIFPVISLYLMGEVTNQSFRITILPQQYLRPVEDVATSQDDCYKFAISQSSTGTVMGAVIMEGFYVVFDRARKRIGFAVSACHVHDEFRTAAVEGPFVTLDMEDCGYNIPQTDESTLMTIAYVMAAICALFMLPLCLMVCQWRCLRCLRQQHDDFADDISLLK

[2] = biological target: T1, human BACE1 (rhBACE1); assay: Caliper BACE1 activity assay (microfluidic capillary electrophoresis); assay type: biochemical; set-up: containing human BACE1 (extracellular domain); settings: 12 nM rhBACE1, 1 μM FAM-substrate, pH 4.4
Experimental: An MCE assay reactions can be carried out in a standard enzymatic reaction, initiated by the addition of substrate to enzyme and 4× compound, containing human BACE1 (extracellular domain), amyloid precursor protein beta secretase active site peptide (FAM-[…]-CONH2 (SEQ ID NO: 20)), 50 mM NaOAc pH 4.4 and 0.1% CHAPS. After incubation for 60 minutes at ambient temperature, the product and substrate in each reaction is separated using a 12-sipper microfluidic chip analyzed on an LC3000® (both, Caliper Life Sciences). The separation of product and substrate is optimized by choosing voltages and pressure using the manufacturer's optimization software. Substrate conversion is calculated from the electrophoregram using HTS Well Analyzer software (Caliper Life Sciences).
BACE1, BACE2 and Cathepsin D Activity Assay Using Microfluidic Capillary Electrophoresis (MCE).
BACE1, BACE2, and Cathepsin D reactions were carried out in a final volume of 20 μl per well in a 384-well microplate using a Caliper LabChip 3000 (Hopkinton, Mass.). A standard enzymatic reaction, initiated by the addition of 10 μ12× substrate to 5 μl of 4× enzyme and 5 μl of 4× peptide or small molecule inhibitor, contained 12 nM rhBACE1, 1 μM FAM-[…]-amide (SEQ ID NO: 20), 50 mM NaOAc, pH 4.4, 0.1% CHAPS. The same reaction conditions were used for rhBACE2 (5 nM) and Cathepsin D (6 nM) (Cat. No. 219394; EMD Biosciences, San Diego, Calif.). After incubation for 60 min at room temperature, the product and substrate in each reaction were separated using a 12-sipper microfluidic chip. Separation of product and substrate was optimized by choosing voltages and pressure using the Caliper Optimizer software. The separation buffer contained 100 mM HEPES, pH 7.2, 0.015% Brij-35, 0.1% Coating Reagent #3, 10 mM EDTA and 5% DMSO. The separation conditions used a downstream voltage of −500 V, an upstream voltage of −2250 V, and a screening pressure of −1.2 psi. The product and substrate fluorescence was excited at 488 nm and detected at 530 nm. Substrate conversion was calculated from the electrophoregram using the Caliper HTS Well Analyzer software.
Target sequence in this assay (P56817 46-457 limits assumed): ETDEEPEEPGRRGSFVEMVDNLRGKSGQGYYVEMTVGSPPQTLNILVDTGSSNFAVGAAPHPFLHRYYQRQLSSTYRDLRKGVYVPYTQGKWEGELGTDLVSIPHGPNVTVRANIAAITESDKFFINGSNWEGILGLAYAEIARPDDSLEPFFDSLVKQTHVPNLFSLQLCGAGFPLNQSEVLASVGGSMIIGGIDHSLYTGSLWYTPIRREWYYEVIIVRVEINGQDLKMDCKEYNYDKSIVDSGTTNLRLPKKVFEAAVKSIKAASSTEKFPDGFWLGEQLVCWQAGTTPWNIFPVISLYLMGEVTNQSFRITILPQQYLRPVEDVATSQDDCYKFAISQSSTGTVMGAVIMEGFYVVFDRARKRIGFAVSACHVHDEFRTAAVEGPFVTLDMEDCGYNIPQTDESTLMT

[3] = biological target: T1, human BACE1 (rhBACE1); assay: BACE1 HTRF activity assay (Bi27 substrate); assay type: biochemical; settings: for IC50: Bi27 27-mer substrate, pH 4.4
Experimental: Briefly, a homogeneous time-resolved fluorescence (HTRF) assay can be used to measure BACE1 aspartyl protease activity with the use of an amyloid precursor protein BACE1 cleavage site peptide. For example, the Bi27 peptide (Biotin-[…] (SEQ ID NO:5), American Peptide Company)), is combined with BACE1 pre-incubated with an anti-BACE antibody in BACE reaction buffer (50 mM sodium acetate pH 4.4 and 0.1% CHAPS) in a 384-well plate (Proxiplate™, Perkin-Elmer). The proteolytic reaction mixture is incubated at ambient temperature for 75 minutes and is quenched by the addition of 5 μL HTRF detection mixture containing 2 nM Streptavidin-D2 and 150 nM of an anti-amyloid beta antibody labeled with Europium cryptate in detection buffer (200 mM Tris pH 8.0, 20 mM EDTA, 0.1% BSA, and 0.8M KF). The final reaction mixture is incubated at ambient temperature for 60 minutes and the TR-FRET signal is measured using an EnVision Multilabel Plate Reader™ (Perkin-Elmer) at an excitation wavelength of 320 nm and emission wavelengths of 615 and 665 nm.
BACE1 HTRF Activity Assay.
The BACE1 HTRF reaction was initiated by the addition of 2 μl of 600 nM Bi27 (Biotin-[…] (SEQ ID NO: 5), American Peptide Company) to 6 μl of 2.7 nM rhBACE1 pre-incubated with peptides or small molecule inhibitors in BACE1 reaction buffer (50 mM NaOAc pH 4.4 and 0.1% CHAPS) in a 384-well Proxiplate (Perkin Elmer). The 8 μl proteolytic reaction mixture was incubated at ambient temperature for 24 h and was quenched by the addition of 8 μl HTRF detection mixture containing 150 nM Streptavidin-D2 and 5 nM 6E10 labeled with Europium cryptate in detection buffer (200 mM Tris pH 8.0, 20 mM EDTA, 0.1% BSA, and 0.8 M KF). The final reaction mixture was incubated at room temperature for 60 min and the TR-FRET signal was measured on the EnVision Multilabel Plate Reader (Perkin Elmer) (excitation at 320 nm, emission at 615 and 665 nm). The data was analyzed using GraphPad Prism 5 (La Jolla, Calif.).
Target sequence in this assay (P56817 46-501): as the sequence (P56817 46-501) above

[4] = tested on: Aβ1-40 production in 293-hAPP cells; assay: Aβ1-40 assay in 293-hAPP cells; assay type: cell-based, human; settings: 293-HEK cells stably transfected with APP, 24 h
Experimental: Aβ1-40 Assay in 293-hAPP Cells.
Aβ1-40 production was measured in 293-HEK cells stably expressing wild-type human APP(695) complementary DNA (cDNA) (293-hAPP). Cells were seeded overnight at 3×10^4 cells per well in a 96-well plate. Fresh media [Dulbecco's modified Eagle's medium (DMEM)+10% fetal bovine serum (FBS)] containing various inhibitors were incubated with the 293-hAPP cells for 24 h. The cellular medium was harvested and assayed for the presence of Aβ1-40 with an Aβ1-40 HTRF assay (CisBio) according to the manufacturer's instructions. Aβ1-40 values were normalized for cell viability, as determined with the CellTiter-Glo Luminescent Cell Viability Assay (Promega). Experiments were performed at least 3 times, and each point in each experiment was repeated in duplicate. Data was plotted with a 4-parameter nonlinear regression curve-fitting program (KaleidaGraph, Synergy Software).

[5] = biological target: T2, BACE1 (Homo sapiens, UniProt P56817); assay: Phage ELISA of peptide-displaying phage on plate-immobilized BACE1; assay type: binding; settings: 70 nM BMS1 peptide
Experimental: BMS1, BMS2 and BMS4 are the same as peptide identifiers 1, 2 and 4, respectively as previously described (Kornacker, M. G. et al. (2005) Biochemistry 44: 11567-73). […] FIG. 1C depicts the competition of peptide-displaying phage bound to BACE1 with synthesized peptide BMS1. The bars represent phage ELISA signal in the absence (gray) or presence (black) of 70 nM BMS1 peptide. The phage peptide ID is as denoted in FIG. 1A.
BACE017 is a BACE1 binding peptide ligand obtained from the solution panning of BACE1 against the naïve peptide library in the presence of 100 μM BACE010. BACE018-BACE021 are peptide sequences for BACE1 binding peptides derived from the affinity maturation of BACE017. The phage spot ELISA data is listed to indicate the relative binding affinity for individual clones. The column labeled with ELISA is the phage-binding signal to BACE1, s/n ratio represents the signal/noise ratio, in which “signal” is the data as shown in column “ELISA” and noise is the phage-binding signal to BSA as background nonspecific binding. […]
After 4 rounds of binding selection, individual phage clones were analyzed in a high-throughput spot phage ELISA (Sidhu, S. S. et al. (2000) Methods Enzymol 328: 333-63) using plate-immobilized BACE1 as the target. The binding signal of the same phage particle to BSA was detected as non-specific binding noise. […]
Target sequence in this assay (P56817 46-501): as above

[6] = biological target: T2, BACE1; assay: Biotinylated BACE020 competition binding ELISA; set-up: extracellular domain (ECD) (residues 22-457) and a C-terminal His8 tag; made in house; host or cells: Chinese hamster ovary cells (transient); settings: concentration dependent addition of competitor
Experimental: The coated wells were washed with buffer (PBS, 0.05% Polysorbate 20) and blocked with assay buffer (PBS, pH 7.4, 0.5% BSA, 0.05% Tween 20, 15 ppm Proclin) for 1 h at room temperature with gentle shaking.
Target sequence in this assay (P56817 22-457): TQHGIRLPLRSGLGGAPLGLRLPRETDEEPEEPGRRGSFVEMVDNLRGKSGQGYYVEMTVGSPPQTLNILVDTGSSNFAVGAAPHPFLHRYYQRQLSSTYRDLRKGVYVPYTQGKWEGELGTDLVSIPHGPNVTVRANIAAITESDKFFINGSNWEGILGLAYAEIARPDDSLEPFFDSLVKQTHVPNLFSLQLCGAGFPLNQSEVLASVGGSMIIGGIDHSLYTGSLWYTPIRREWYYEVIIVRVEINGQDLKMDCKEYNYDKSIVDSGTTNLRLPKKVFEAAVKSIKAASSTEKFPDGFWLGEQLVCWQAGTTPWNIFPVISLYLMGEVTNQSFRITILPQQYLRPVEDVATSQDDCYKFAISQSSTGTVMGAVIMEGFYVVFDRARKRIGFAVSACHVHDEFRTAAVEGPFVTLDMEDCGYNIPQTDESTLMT

Row | IC50 [1] | IC50 [2] | IC50 [3] | Binding of phage-displayed peptide to BACE1 in competition with peptide BMS1 [5] | Effect on BACE1 activity in HTRF enzyme activity assay (in words) [3] | Competition for binding of biotinylated BACE020 to BACE1 [6] | Molecule | Inhibition of Aβ production in cells (in words) [4]
1 | > 10000 nM | > 10000 nM | 438 nM | – | – | – | CC[C@H](C)[C@H](NC(=O)[C@H](Cc1c[nH]cn1)NC(=O)[C@H](CCC(=O)O)NC(=O)[C@H](CCC(=O)O)NC(=O)[C@H](CC(N)=O)NC(C)=O)C(=O)N[C@@H](Cc1ccc(O)cc1)C(=O)N[C@H]1CSSC[C@@H](C(=O)NCC(N)=O)NC(=O)CNC(=O)[C@H](CC(C)C)NC(=O)CNC(=O)[C@H](CC(C)C)NC(=O)[C@H](CC(C)C)NC(=O)[C@H](CCCNC(=N)N)NC1=O [BACE017] (Ac-NEEHIYCRLLGLGCG-NH2; disulfide 7-14) | –
2 | – | – | – | – | – | – | OM99-2 [reference compound] | not all enzymatic inhibitors showed cellular activity
3 | > 10000 nM | – | – | competitive | very weak inhibitor | – | Ac-SGPYFIEYMSAV-NH2 [BACE010] | –
4 | > 10000 nM | – | – | – | – | no competition | Ac-NLTTYPYFIPLP-NH2 [BMS1, reference compound] | no inhibition
5 | – | – | – | competitive | activator | – | BACE011: Ac-SGCLDYPCFVPIS-NH2 (disulfide 3-8 (inferred)) | –
6 | > 10000 nM | > 10000 nM | – | – | – | – | Ac-NEESMYSRLLGIGSG-NH2 [BACE027] | no inhibition
7 | 10 ± 3 nM | – | 10 nM | – | – | – | CSCC[C@@H]1NC(=O)[C@H](CC(C)C)NC(=O)[C@H](CCCNC(=N)N)NC(=O)[C@@H](NC(=O)[C@H](Cc2ccc(O)cc2)NC(=O)[C@@H]2CCCN2C(=O)[C@H](CO)NC(=O)[C@H](CC(C)C)NC(=O)[C@H](CCC(=O)O)NC(=O)[C@H](CC(N)=O)NC(C)=O)CSSC[C@@H](C(=O)N[C@@H](CC(=O)O)C(N)=O)NC(=O)CNC(=O)[C@H](CC(C)C)NC(=O)CNC1=O [BACE019] (Ac-NELSPYCRLMGLGCD-NH2; disulfide 7-14) | –
8 | 11 ± 2 nM | 11 ± 3 nM | 12 nM | – | best inhibitory activity | – | CC[C@H](C)[C@@H]1NC(=O)CNC(=O)[C@H](CC(C)C)NC(=O)[C@H](CC(C)C)NC(=O)[C@H](CCCNC(=N)N)NC(=O)[C@@H](NC(=O)[C@H](Cc2ccc(O)cc2)NC(=O)[C@H](CCSC)NC(=O)[C@H](CO)NC(=O)[C@H](CCC(=O)O)NC(=O)[C@H](CCC(=O)O)NC(=O)[C@H](CC(N)=O)NC(C)=O)CSSC[C@@H](C(=O)NCC(N)=O)NC(=O)CNC1=O [BACE020] (Ac-NEESMYCRLLGIGCG-NH2; disulfide 7-14) | potent inhibitor

— US9624269B2, “Peptide inhibitors of BACE1” (GENENTECH, INC., priority 2011, dated 2017)
